Counter-ions that a name gives are not always drawn.
Legend:
[1] = biological target: T1, HiBit-BRG1 fusion protein (Homo sapiens, UniProt P51532); assay: HiBiT-BRG1 cell-based degradation assay (Nano-Glo HiBiT Lytic Detection, 24 h); conditions: HeLa cell line expressing HiBit-BRG1 and LgBit; for Dmax: read-out: BRG1 HiBit Degradation Maximum (%); for DC50: read-out: BRMG1 HiBit Degradation IC50
T1 construct: expressed in transfected cells
Description: Procedure: A stable HeLa cell line expressing HiBiT-BRM was generated. On day 0, 5000 cells were seeded in 40 μL of media into each well of 384-well cell culture plates. […] Subsequently plates were incubated for 24 h in a standard tissue culture incubator and equilibrated at room temperature for 15 minutes. Nano-Glo HiBiT Lytic Detection System (Promega N3050) reagent was freshly prepared and 20 ul was added to each well. Upon addition of this LgBit-containing reagent, the HiBiT and LgBiT proteins associate to form the luminescent NanoBiT luciferase. The plates were shaken for 10 minutes at room temperature and the bioluminescence read using an EnVision plate reader (PerkinElmer).
For measurement of BRG1 degradation, a stable HeLa cell line expressing HiBit-BRG1 and LgBit was generated. The same protocol as above was then followed.
(§1) The degradation % was calculated using the following formula: % degradation=100%−100%×(LumSample−LumLC)/(LumHC−LumLC). DMSO treated cells are employed as High Control (HC) and 2 μM of a known BRM/BRG1 degrader standard treated cells are employed as Low Control (LC).

HiBit-BRM fusion protein = biological target: T2, HiBit-BRM fusion protein (Homo sapiens, UniProt P51531); assay: HiBiT-BRM cell-based degradation assay (Nano-Glo HiBiT Lytic Detection, 24 h); conditions: HeLa cell line expressing HiBiT-BRM; for DC50: read-out: BRM HiBit Degradation IC50
T2 construct: expressed in transfected cells
T2 sequence (P51531 whole entry, the tested form may be a part): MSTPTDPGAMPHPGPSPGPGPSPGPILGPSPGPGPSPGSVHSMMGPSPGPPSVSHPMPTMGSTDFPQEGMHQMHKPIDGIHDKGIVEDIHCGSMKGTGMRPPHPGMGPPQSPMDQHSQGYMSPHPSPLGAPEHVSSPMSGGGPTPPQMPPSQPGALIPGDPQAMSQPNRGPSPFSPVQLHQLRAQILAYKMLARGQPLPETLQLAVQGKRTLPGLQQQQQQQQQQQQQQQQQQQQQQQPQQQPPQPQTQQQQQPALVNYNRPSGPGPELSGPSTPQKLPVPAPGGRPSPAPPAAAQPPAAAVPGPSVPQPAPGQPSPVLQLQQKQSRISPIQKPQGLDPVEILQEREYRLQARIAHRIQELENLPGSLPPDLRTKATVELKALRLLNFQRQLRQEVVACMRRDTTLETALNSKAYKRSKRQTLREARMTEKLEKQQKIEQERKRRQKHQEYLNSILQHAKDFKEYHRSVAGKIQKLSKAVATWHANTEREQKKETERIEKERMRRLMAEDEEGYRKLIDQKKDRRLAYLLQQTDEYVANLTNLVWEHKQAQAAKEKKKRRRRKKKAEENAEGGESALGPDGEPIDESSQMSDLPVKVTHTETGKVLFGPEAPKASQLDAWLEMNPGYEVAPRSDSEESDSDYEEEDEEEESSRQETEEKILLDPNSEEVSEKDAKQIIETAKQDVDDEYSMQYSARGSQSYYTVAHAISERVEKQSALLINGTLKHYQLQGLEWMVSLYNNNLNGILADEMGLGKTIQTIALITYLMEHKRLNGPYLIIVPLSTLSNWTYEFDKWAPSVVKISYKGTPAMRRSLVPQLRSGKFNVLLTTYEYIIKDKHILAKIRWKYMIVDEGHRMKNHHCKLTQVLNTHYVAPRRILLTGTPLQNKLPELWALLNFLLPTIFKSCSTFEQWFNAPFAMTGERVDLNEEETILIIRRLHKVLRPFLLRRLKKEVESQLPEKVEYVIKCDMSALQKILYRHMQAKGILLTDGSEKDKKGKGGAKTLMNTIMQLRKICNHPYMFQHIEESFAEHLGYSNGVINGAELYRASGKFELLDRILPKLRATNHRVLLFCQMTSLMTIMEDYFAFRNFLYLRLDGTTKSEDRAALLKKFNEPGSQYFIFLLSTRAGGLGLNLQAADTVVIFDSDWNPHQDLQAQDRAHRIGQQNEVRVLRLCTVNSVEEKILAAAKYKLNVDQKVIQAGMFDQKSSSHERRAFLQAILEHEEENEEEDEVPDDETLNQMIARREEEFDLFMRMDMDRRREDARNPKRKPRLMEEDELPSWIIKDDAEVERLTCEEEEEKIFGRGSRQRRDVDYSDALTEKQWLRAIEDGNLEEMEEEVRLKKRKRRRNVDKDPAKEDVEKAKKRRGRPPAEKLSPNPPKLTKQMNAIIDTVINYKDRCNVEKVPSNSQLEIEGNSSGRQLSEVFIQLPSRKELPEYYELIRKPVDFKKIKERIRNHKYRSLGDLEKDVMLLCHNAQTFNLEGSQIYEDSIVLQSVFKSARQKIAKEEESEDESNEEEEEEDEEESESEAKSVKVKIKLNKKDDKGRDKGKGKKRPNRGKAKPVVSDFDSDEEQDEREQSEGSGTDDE
Description: Procedure: A stable HeLa cell line expressing HiBiT-BRM was generated. On day 0, 5000 cells were seeded in 40 μL of media into each well of 384-well cell culture plates. On day 1, cells were treated with 120 nL DMSO or 120 nL of 3-fold serially DMSO-diluted compounds (10 points in duplicate with 30 μM as final top dose). Subsequently plates were incubated for 24 h in a standard tissue culture incubator and equilibrated at room temperature for 15 minutes. Nano-Glo HiBiT Lytic Detection System (Promega N3050) reagent was freshly prepared and 20 ul was added to each well. Upon addition of this LgBit-containing reagent, the HiBiT and LgBiT proteins associate to form the luminescent NanoBiT luciferase. The plates were shaken for 10 minutes at room temperature and the bioluminescence read using an EnVision plate reader (PerkinElmer).
as §1

T1 sequence (P51532 whole entry, the tested form may be a part): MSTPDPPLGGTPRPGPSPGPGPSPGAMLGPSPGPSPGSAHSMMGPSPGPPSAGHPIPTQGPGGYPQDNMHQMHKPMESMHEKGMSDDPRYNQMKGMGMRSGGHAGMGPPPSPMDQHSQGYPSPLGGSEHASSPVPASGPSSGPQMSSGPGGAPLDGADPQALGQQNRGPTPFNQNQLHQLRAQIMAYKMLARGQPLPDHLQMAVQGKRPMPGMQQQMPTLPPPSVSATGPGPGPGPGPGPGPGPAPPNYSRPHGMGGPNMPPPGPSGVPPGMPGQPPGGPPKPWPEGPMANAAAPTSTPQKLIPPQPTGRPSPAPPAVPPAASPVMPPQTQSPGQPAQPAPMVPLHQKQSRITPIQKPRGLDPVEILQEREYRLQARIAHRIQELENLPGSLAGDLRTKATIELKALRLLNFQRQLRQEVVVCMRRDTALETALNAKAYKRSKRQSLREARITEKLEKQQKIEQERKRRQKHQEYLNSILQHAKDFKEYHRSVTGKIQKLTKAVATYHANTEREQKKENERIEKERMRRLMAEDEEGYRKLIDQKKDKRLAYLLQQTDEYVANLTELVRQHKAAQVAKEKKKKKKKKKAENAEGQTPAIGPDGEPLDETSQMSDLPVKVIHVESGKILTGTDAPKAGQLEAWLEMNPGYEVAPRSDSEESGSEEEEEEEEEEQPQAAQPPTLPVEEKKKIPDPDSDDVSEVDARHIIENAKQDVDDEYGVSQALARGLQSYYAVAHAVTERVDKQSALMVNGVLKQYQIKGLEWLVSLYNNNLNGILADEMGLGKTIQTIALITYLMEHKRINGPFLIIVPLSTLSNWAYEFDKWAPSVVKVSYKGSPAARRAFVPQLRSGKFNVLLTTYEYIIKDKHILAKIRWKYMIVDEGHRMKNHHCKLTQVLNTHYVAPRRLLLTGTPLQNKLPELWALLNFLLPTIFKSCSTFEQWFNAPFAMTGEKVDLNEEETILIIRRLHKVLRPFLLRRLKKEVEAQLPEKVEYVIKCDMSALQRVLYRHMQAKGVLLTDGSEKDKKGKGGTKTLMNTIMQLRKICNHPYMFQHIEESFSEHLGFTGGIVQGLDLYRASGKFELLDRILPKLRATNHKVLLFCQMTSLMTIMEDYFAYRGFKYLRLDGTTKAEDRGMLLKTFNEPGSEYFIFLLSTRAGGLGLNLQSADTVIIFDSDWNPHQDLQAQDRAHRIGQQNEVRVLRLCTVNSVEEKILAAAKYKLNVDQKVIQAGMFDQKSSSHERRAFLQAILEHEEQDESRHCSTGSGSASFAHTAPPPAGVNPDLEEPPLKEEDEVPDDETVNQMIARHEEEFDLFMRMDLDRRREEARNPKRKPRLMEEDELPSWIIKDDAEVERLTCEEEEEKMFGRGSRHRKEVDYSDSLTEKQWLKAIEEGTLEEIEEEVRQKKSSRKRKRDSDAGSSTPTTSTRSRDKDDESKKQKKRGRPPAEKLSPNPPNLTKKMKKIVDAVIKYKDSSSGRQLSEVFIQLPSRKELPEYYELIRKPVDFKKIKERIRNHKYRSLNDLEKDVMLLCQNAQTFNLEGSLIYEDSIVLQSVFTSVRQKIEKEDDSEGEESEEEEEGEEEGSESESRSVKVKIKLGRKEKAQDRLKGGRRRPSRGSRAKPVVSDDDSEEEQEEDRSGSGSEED

## Cc1ncsc1-c1ccc([C@H](C)NC(=O)[C@@H]2C[C@@H](O)CN2C(=O)[C@@H](c2cc(OCCN3CCC(N4CC(c5cc6cc(-c7ccccc7O)nnc6[nH]5)C4)CC3)no2)C(C)C)cc1 (racemic) [Compound 48, (2S,4R)-4-hydroxy-1-((R)-2-(3-(2-(4-(3-(3-(2-hydroxyphenyl)-7H-pyrrolo[2,3-c]pyridazin-6-yl)azetidin-1-yl)piperidin-1-yl)ethoxy)isoxazol-5-yl)-3-methylbutanoyl)-N-((S)-1-(4-(4-methylthiazol-5-yl)phenyl)ethyl)pyrrolidine-2-carboxamide]
[1]
  Dmax: < 50%
HiBit-BRM fusion protein
  BRM HiBit Degradation Maximum (%): A (“A” indicates maximum degradation ≥ 75%)
  DC50: > 10 nM

## Cc1ncsc1-c1ccc([C@H](C)NC(=O)[C@@H]2C[C@@H](O)CN2C(=O)[C@@H](c2cc(OCCN3CCC(N4CC(c5cc6cc(-c7ccccc7O)nnc6[nH]5)C4)C3)no2)C(C)C)cc1 (mixture of isomers) [Compound 49, (2S,4R)-4-hydroxy-1-((2R)-2-(3-(2-(3-(3-(3-(2-hydroxyphenyl)-7H-pyrrolo[2,3-c]pyridazin-6-yl)azetidin-1-yl)pyrrolidin-1-yl)ethoxy)isoxazol-5-yl)-3-methylbutanoyl)-N-((S)-1-(4-(4-methylthiazol-5-yl)phenyl)ethyl)pyrrolidine-2-carboxamide]
[1]
  Dmax: > 50%
  DC50: > 100 nM
HiBit-BRM fusion protein
  BRM HiBit Degradation Maximum (%): A (“A” indicates maximum degradation ≥ 75%)
  DC50: > 10 nM

## Cc1ncsc1-c1ccc(CNC(=O)[C@@H]2C[C@@H](O)CN2C(=O)[C@@H](NCCC(=O)N2CC(c3cc4cc(-c5ccccc5O)nnc4[nH]3)C2)C(C)(C)C)cc1 (racemic) [Compound 50, (2S,4R)-4-hydroxy-1-((S)-2-((3-(3-(3-(2-hydroxyphenyl)-7H-pyrrolo[2,3-c]pyridazin-6-yl)azetidin-1-yl)-3-oxopropyl)amino)-3,3-dimethylbutanoyl)-N-(4-(4-methylthiazol-5-yl)benzyl)pyrrolidine-2-carboxamide]
[1]
  Dmax: < 50%
HiBit-BRM fusion protein
  BRM HiBit Degradation Maximum (%): C (“C” indicates maximum degradation < 50%)

## Cc1ncsc1-c1ccc([C@H](C)NC(=O)[C@@H]2C[C@@H](O)CN2C(=O)[C@@H](c2cc(OCCN3CCC(c4cc5cc(-c6ccccc6O)nnc5[nH]4)CC3)no2)C(C)C)cc1 (racemic) [Compound 51, (2S,4R)-4-hydroxy-1-((R)-2-(3-(2-(4-(3-(2-hydroxyphenyl)-7H-pyrrolo[2,3-c]pyridazin-6-yl)piperidin-1-yl)ethoxy)isoxazol-5-yl)-3-methylbutanoyl)-N-((S)-1-(4-(4-methylthiazol-5-yl)phenyl)ethyl)pyrrolidine-2-carboxamide]
[1]
  Dmax: > 50%
  DC50: > 100 nM
HiBit-BRM fusion protein
  BRM HiBit Degradation Maximum (%): A (“A” indicates maximum degradation ≥ 75%)
  DC50: > 10 nM

## Cc1ncsc1-c1ccc([C@H](C)NC(=O)[C@@H]2C[C@@H](O)CN2C(=O)[C@@H](c2cc(OCCN3CCC(c4cc5cc(-c6ccccc6O)nnc5[nH]4)C3)no2)C(C)C)cc1 (mixture of isomers) [Compound 52, (2S,4R)-4-hydroxy-1-((2R)-2-(3-(2-(3-(3-(2-hydroxyphenyl)-7H-pyrrolo[2,3-c]pyridazin-6-yl)pyrrolidin-1-yl)ethoxy)isoxazol-5-yl)-3-methylbutanoyl)-N-((S)-1-(4-(4-methylthiazol-5-yl)phenyl)ethyl)pyrrolidine-2-carboxamide]
[1]
  Dmax: < 50%
HiBit-BRM fusion protein
  BRM HiBit Degradation Maximum (%): A (“A” indicates maximum degradation ≥ 75%)
  DC50: > 10 nM

## Cc1ncsc1-c1ccc([C@H](C)NC(=O)[C@@H]2C[C@@H](O)CN2C(=O)[C@@H](c2cc(OCCNC34CC(c5cc6cc(-c7ccccc7O)nnc6[nH]5)(C3)C4)no2)C(C)C)cc1 (racemic) [Compound 53, (2S,4R)-4-hydroxy-1-((R)-2-(3-(2-((3-(3-(2-hydroxyphenyl)-7H-pyrrolo[2,3-c]pyridazin-6-yl)bicyclo[1.1.1]pentan-1-yl)amino)ethoxy)isoxazol-5-yl)-3-methylbutanoyl)-N-((S)-1-(4-(4-methylthiazol-5-yl)phenyl)ethyl)pyrrolidine-2-carboxamide]
[1]
  Dmax: > 75%
  DC50: > 10 nM
HiBit-BRM fusion protein
  BRM HiBit Degradation Maximum (%): A (“A” indicates maximum degradation ≥ 75%)
  DC50: > 10 nM

## Cc1ncsc1-c1ccc([C@H](C)NC(=O)[C@@H]2C[C@@H](O)CN2C(=O)[C@@H](c2cc(OCCN3CC4(CC(c5cc6cc(-c7ccccc7O)nnc6[nH]5)C4)C3)no2)C(C)C)cc1 (racemic) [Compound 54, (2S,4R)-4-hydroxy-1-((R)-2-(3-(2-(6-(3-(2-hydroxyphenyl)-7H-pyrrolo[2,3-c]pyridazin-6-yl)-2-azaspiro[3.3]heptan-2-yl)ethoxy)isoxazol-5-yl)-3-methylbutanoyl)-N-((S)-1-(4-(4-methylthiazol-5-yl)phenyl)ethyl)pyrrolidine-2-carboxamide]
[1]
  Dmax: > 50%
  DC50: > 100 nM
HiBit-BRM fusion protein
  BRM HiBit Degradation Maximum (%): A (“A” indicates maximum degradation ≥ 75%)
  DC50: > 10 nM

## Cc1ncsc1-c1ccc([C@H](C)NC(=O)[C@@H]2C[C@@H](O)CN2C(=O)[C@H](c2cc(OCCN3CC(c4cc5cc(-c6ccccc6O)nnc5[nH]4)C3)no2)C(C)C)cc1 (racemic) [Compound 62, (2S,4R)-4-hydroxy-1-((S)-2-(3-(2-(3-(3-(2-hydroxyphenyl)-7H-pyrrolo[2,3-c]pyridazin-6-yl)azetidin-1-yl)ethoxy)isoxazol-5-yl)-3-methylbutanoyl)-N-((S)-1-(4-(4-methylthiazol-5-yl)phenyl)ethyl)pyrrolidine-2-carboxamide]
HiBit-BRM fusion protein
  BRM HiBit Degradation Maximum (%): C (“C” indicates maximum degradation < 50%)

## Cc1ncsc1-c1ccc([C@H](C)NC(=O)[C@@H]2C[C@@H](O)CN2C(=O)[C@@H](c2cc(N3CCN(CCN4CC(c5cc6cc(-c7ccccc7O)nnc6[nH]5)C4)CC3)no2)C(C)C)cc1 (racemic) [Compound 273, (2S,4R)-4-hydroxy-1-[(2R)-2-{3-[4-(2-{3-[3-(2-hydroxyphenyl)-7H-pyrrolo[2,3-c]pyridazin-6-yl]azetidin-1-yl}ethyl)piperazin-1-yl]-1,2-oxazol-5-yl}-3-methylbutanoyl]-N-[(1S)-1-[4-(4-methyl-1,3-thiazol-5-yl)phenyl]ethyl]pyrrolidine-2-carboxamide]
HiBit-BRM fusion protein
  BRM HiBit Degradation Maximum (%): A (“A” indicates maximum degradation ≥ 75%)
  DC50: > 100 nM

## Cc1ncsc1-c1ccc([C@H](C)NC(=O)[C@@H]2C[C@@H](O)CN2C(=O)[C@@H](c2cc(OCCN3CC(c4cc5cc(-c6ccccc6O)nnc5[nH]4)C3)no2)C(C)C)cc1 [Compound 14, (2S,4R)-4-hydroxy-1-((R)-2-(3-(2-(3-(3-(2-hydroxyphenyl)-7H-pyrrolo[2,3-c]pyridazin-6-yl)azetidin-1-yl)ethoxy)isoxazol-5-yl)-3-methylbutanoyl)-N—((S)-1-(4-(4-methylthiazol-5-yl)phenyl)ethyl)pyrrolidine-2-carboxamide formate]
HiBit-BRM fusion protein
  BRM HiBit Degradation Maximum (%): A (“A” indicates maximum degradation ≥ 75%)
  DC50: > 10 nM

## Cc1ncsc1-c1ccc([C@H](C)NC(=O)[C@@H]2C[C@@H](O)CN2C(=O)[C@@H](c2cc(OCCN3CC(c4c[nH]c5nnc(-c6ccccc6O)cc45)C3)no2)C(C)C)cc1 [Compound 15, (2S,4R)-4-hydroxy-1-((R)-2-(3-(2-(3-(3-(2-hydroxyphenyl)-7H-pyrrolo[2,3-c]pyridazin-5-yl)azetidin-1-yl)ethoxy)isoxazol-5-yl)-3-methylbutanoyl)-N—((S)-1-(4-(4-methylthiazol-5-yl)phenyl)ethyl)pyrrolidine-2-carboxamide formate]
HiBit-BRM fusion protein
  BRM HiBit Degradation Maximum (%): A (“A” indicates maximum degradation ≥ 75%)
  DC50: > 100 nM

## Cc1ncsc1-c1ccc([C@H](C)NC(=O)[C@@H]2C[C@@H](O)CN2C(=O)[C@@H](c2cc(C3CCN(C(=O)N4CCc5[nH]c6nnc(-c7ccccc7O)cc6c5C4)CC3)no2)C(C)C)cc1 [Compound 105, (2S,4R)-4-hydroxy-1-((R)-2-(3-(1-(3-(2-hydroxyphenyl)-6,7,8,9-tetrahydro-5H-pyrido[3′,4′:4,5]pyrrolo[2,3-c]pyridazine-6-carbonyl)piperidin-4-yl)isoxazol-5-yl)-3-methylbutanoyl)-N—((S)-1-(4-(4-methylthiazol-5-yl)phenyl)ethyl)pyrrolidine-2-carboxamide]
HiBit-BRM fusion protein
  BRM HiBit Degradation Maximum (%): A (“A” indicates maximum degradation ≥ 75%)
  DC50: > 10 nM

— patent US20240024488A1, “COMPOUNDS AND USES THEREOF” (Foghorn Therapeutics Inc., priority 2020, published 2024)
